Assay results published in US7253169B2, “Aza compounds, pharmaceutical compositions and methods of use” (Gliamed, Inc., priority 1999, dated 2007).

These compounds were tested on TH-stained dopaminergic neurons (assay: MPTP Model of Parkinson's Disease). Settings: MPTP-lesioned CD1 mice, 4 mg/kg s.c.
Format: in vivo

For `CCC(C)(C)C(=O)C(=O)N1CCCN1C(=O)CCCCc1ccccc1` [Compound 1, 3,3-dimethyl-N-[2-(5-phenylpentanoyl) -tetrahydro-1H-1-pyrazolyl]-1,2-pentanedione], the “% TH recov 4 mg/kg s.c.” value was 14%.

Same assay, conditions: MPTP-lesioned CD1 mice, 10 mg/kg p.o.

`CCC(C)(C)C(=O)C(=O)N1CCCCN1C(=O)OCCCc1ccccc1` [Compound 14, 3-phenylpropyl 2-(3,3-dimethyl-2-oxopentanoyl)-perhydropyridazine-carboxylate] was tested, and the “% TH recov 10 mg/kg p.o.” value was 3%.

Same assay, conditions: Mus musculus, Neuron, po; MPTP-lesioned CD1 mice, 10 mg/kg p.o.; read-out: % TH recov 10 mg/kg p.o.

Going from `CCC(C)(C)C(=O)C(=O)N1CCCN1C(=O)CCc1ccccc1` [Compound 2, 3,3-dimethyl-N-[2-(3-phenylpropanoyl)tetra-hydro-1H-1-pyrazolyl]-1,2-pentanedione] to `CCC(C)(C)C(=O)C(=O)N1CCCN1C(=O)CCCc1ccccc1` [Compound 5, 3,3-dimethyl-1-[2-(4-phenylbutanoyl)-pyrazolidinyl]pentane-1,2-dione], the % recovery of TH-stained dopaminergic neurons at 10 mg/kg falls from 10% to 4%.

First: CCC(C)(C)C(=O)C(=O)N1CCCN1C(=O)CCC#Cc1cccnc1 [Compound 3, 3,3-dimethyl-1-[2-(5-(3-pyridyl)pent-4-ynoyl)-pyrazolidinyl]-pentane-1,2-dione]
Second: CCC(C)(C)C(=O)C(=O)N1CCCN1C(=O)CCCCc1cccnc1 [Compound 7, 3,3-dimethyl-1-[2-(5-(3-pyridyl)pentanoyl)-pyrazolidinyl]pentane-1,2-dione]
The % recovery of TH-stained dopaminergic neurons at 10 mg/kg of the first is lower: 26% for the first, 57% for the second.

Going from `CCC(C)(C)C(=O)C(=O)N1CCCN1C(=O)CCCCCc1ccccc1` [Compound 6, 3,3-dimethyl-1-[2-(6-phenylhexanoyl)-pyrazolidinyl]pentane-1,2-dione] to `CCC(C)(C)C(=O)C(=O)N1CCCCN1C(=O)CCCCCc1ccccc1` [Compound 12, 3,3-dimethyl-1-[2-(6-phenylhexanoyl)-perhydropyridazinyl]-pentane-1,2-dione], the % recovery of TH-stained dopaminergic neurons at 10 mg/kg rises from 32% to 35%.

First: CCC(C)(C)C(=O)C(=O)N1CCCCN1C(=O)CCCCCc1cccnc1 [Compound 13, 3,3-dimethyl-2-[2-(6-(3-pyridyl)hexanoyl)-perhydropyridazinyl]-pentane-1,2-dione]
Second: CCC(C)(C)C(=O)C(=O)N1CCCCN1C(=O)OCCCCc1cccnc1 [Compound 17, 4-(3-pyridyl)butyl 2-(3,3-dimethyl-2-oxopentanoyl)-perhydropyridazine-carboxylate]
The % recovery of TH-stained dopaminergic neurons at 10 mg/kg of the first is lower: 18% for the first, 38% for the second.

First: CCC(C)(C)C(=O)C(=O)N1CCCCN1C(=O)OCCCCc1ccccc1 [Compound 15, 4-phenylbutyl 2-(3,3-dimethyl-2-oxopentanoyl)perhydro-pyridazinecarboxylate]
Second: CCC(C)(C)C(=O)C(=O)N1CCCCN1C(=O)OCCCCCc1ccccc1 [Compound 16, 5-phenylpentyl 2-(3,3-dimethyl-2-oxopentanoyl)perhydro-pyridazinecarboxylate]
The % recovery of TH-stained dopaminergic neurons at 10 mg/kg of the first is lower: 21% for the first, 49% for the second.

First: CCC(C)(C)C(=O)C(=O)N1CCCCN1C(=O)CCCCc1ccccc1 [Compound 18, 3,3-dimethyl-1-[2-({5-phenyl)pentanoyl)-perhydropyridazinyl]-pentane-1,2-dione]
Second: O=C(NC1CCCCC1)N1CCCCN1C(=O)OCCCCc1ccccc1 [Compound 154, 4-phenylbutyl 2-(N-cyclohexylcarbamoyl)-perhydropyridazine-carboxylate]
The % recovery of TH-stained dopaminergic neurons at 10 mg/kg of the first is lower: 18% for the first, 46% for the second.

`O=C(OCCCCc1ccccc1)N1CCCCN1S(=O)(=O)Cc1ccccc1` [Compound 106, 4-phenylbutyl 2-[benzylsunfonyl]-perhydropyridazine-carboxylate] showed a % recovery of TH-stained dopaminergic neurons at 10 mg/kg of 23%.

What follows are compounds tested against FKBP (Homo sapiens, UniProt P62942) (assay: Ki Test: inhibition of peptidyl-prolyl isomerase (rotamase) activity, chymotrypsin-coupled assay). Settings: apparent Ki.
Format: biochemical
Source text: Inhibition of the peptidyl-prolyl isomerase (rotamase) activity of the inventive compounds can be evaluated by known methods described in the literature (Harding et al., Nature, 1989, 341:758-760; Holt et al. J. Am. Chem. Soc., 115:9923-9938). These values are obtained as apparent Ki's and are presented for representative compounds in Table V. The cis-trans isomerization of an alanine-proline bond in a model substrate, N-succinyl-Ala-Ala-Pro-Phe-p-nitroanilide, is monitored spectrophotometrically in a chymotrypsin-coupled assay, which releases para-nitroanilide from the trans form of the substrate. The inhibition of this reaction caused by the addition of different concentrations of inhibitor is determined, and the data is analyzed as a change in first-order rate constant as a function of inhibitor concentration to yield the apparent Ki values.
In a plastic cuvette are added […] of ice cold assay buffer (25 mM HEPES, pH 7.8, 100 mM NaCl), […] of FKBP (2.5 mM in 10 mM Tris-Cl pH 7.5, 100 mM NaCl, 1 mM dithiothreitol), […] of chymotrypsin (50 mg/ml in 1 mM HCl) and […] of test compound at various concentrations in dimethyl sulfoxide. […]
The absorbance at 390 nm versus time is monitored for 90 seconds using a spectrophotometer and the rate constants are determined from the absorbance versus time data files.

FKBP, sequence (P62942 whole entry): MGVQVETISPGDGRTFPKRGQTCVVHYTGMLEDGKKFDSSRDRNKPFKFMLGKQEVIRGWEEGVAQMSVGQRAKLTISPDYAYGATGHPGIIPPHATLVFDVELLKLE

Going from `CCC(C)(C)C(=O)C(=O)N1CCCN1C(=O)CCCCc1ccccc1` [Compound 1, 3,3-dimethyl-N-[2-(5-phenylpentanoyl) -tetrahydro-1H-1-pyrazolyl]-1,2-pentanedione] to `CCC(C)(C)C(=O)C(=O)N1CCCCN1C(=O)CCCCCc1cccnc1` [Compound 13, 3,3-dimethyl-2-[2-(6-(3-pyridyl)hexanoyl)-perhydropyridazinyl]-pentane-1,2-dione], the Ki rises from 1170 nM to 3210 nM (2.7-fold).
